Legend:
[1] = Antioxidant efficacy as assessed by the deoxyribose assay in presence of EDTA (0.104 mM) and phenylalanine (0.208 mM)
[2] = Antioxidant efficacy as assessed by the deoxyribose assay at a concentration of 5.2 mM
[3] = Antioxidant efficacy as assessed by the deoxyribose assay at a concentration of 0.104 mM
[4] = Antioxidant efficacy as assessed by the deoxyribose assay at a concentration of 1.040 mM

For `CCOC(=O)C(Cc1ccccc1)NC(=O)CN(CCN(CC(=O)O)CC(=O)NC(Cc1ccccc1)C(=O)OCC)CC(=O)O` (centres undefined), the inhibition [1] was 2%, the inhibition [2] was 51% and the inhibition [3] was 20%. For the same compound, the inhibition [4] was 42%.

From ChEMBL document CHEMBL1133971, “EDTA bis-(ethyl phenylalaninate): a novel transition metal-ion chelating hydroxyl radical scavenger with a potential anti-inflammatory role” (Bioorg Med Chem Lett, 2001)
